Reference: ChEMBL document CHEMBL1201862, “PubChem BioAssay data set” (2004)
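All cell lines were grown in 96-well plates and treated with compound for 48 hours. GI50 marks 50% less growth.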 Activity calls are given as the source filed them. No stated cut-off is given here; in the data, active = GI50 up to about 1.1 µM and inactive = higher.

Key:
Test in all cases: growth of human tumour cells (NCI), 48 h
SN12C = test system: SN12C
UACC-257 = test system: UACC-257
NCI-H226 = test system: NCI-H226
DU-145 = test system: DU-145
MDA-N = test system: MDA-N
NCI-H23 = test system: NCI-H23
RPMI-8226 = test system: RPMI-8226
OVCAR-3 = test system: OVCAR-3
EKVX = test system: EKVX
RXF 393 = test system: RXF 393
Malme-3M = test system: Malme-3M
Hs-578T = test system: Hs-578T
NCI/ADR-RES = test system: NCI/ADR-RES
HCT-116 = test system: HCT-116
SF-268 = test system: SF-268
MCF7 = test system: MCF7
SW-620 = test system: SW-620
IGROV-1 = test system: IGROV-1
UO-31 = test system: UO-31
CAKI-1 = test system: CAKI-1

Structure (SMILES) | GI50 (SN12C) | GI50 (UACC-257) | GI50 (NCI-H226) | GI50 (DU-145) | GI50 (MDA-N) | GI50 (NCI-H23) | GI50 (RPMI-8226) | GI50 (OVCAR-3) | GI50 (EKVX) | GI50 (RXF 393) | GI50 (Malme-3M) | GI50 (Hs-578T) | GI50 (NCI/ADR-RES) | GI50 (HCT-116) | GI50 (SF-268) | GI50 (MCF7) | GI50 (SW-620) | GI50 (IGROV-1) | GI50 (UO-31) | GI50 (CAKI-1)
C[C@@H](C[C@H]1OC(C)(C)O[C@@H]1C(C)(C)O)[C@H]1CC=C2[C@]3(C)[C@H](O)C[C@H]4C(C)(C)[C@H](O)CC[C@]4(C)[C@H]3CC[C@]21C | 3.32 µM (inactive) | 8.81 µM (inactive) | 7.62 µM (inactive) | 14.1 µM (inactive) | 8.85 µM (inactive) | 9.86 µM (inactive) | 4.03 µM (inactive) | 7.91 µM (inactive) | 9.98 µM (inactive) | 6.44 µM (inactive) | 14 µM (inactive) | 7.33 µM (inactive) | 7.69 µM (inactive) | 5.86 µM (inactive) | 10.5 µM (inactive) | 2.12 µM (inactive) | 10.7 µM (inactive) | 11.9 µM (inactive) | 8.93 µM (inactive) | 10.8 µM (inactive)
O=C(NNS(=O)(=O)c1ccccc1)c1cccnc1 | > 100 µM (inactive) | > 100 µM (inactive) | > 100 µM (inactive) | > 100 µM (inactive) | > 100 µM (inactive) | > 100 µM (inactive) | > 100 µM (inactive) | > 100 µM (inactive) | > 100 µM (inactive) | > 100 µM (inactive) | > 100 µM (inactive) | > 100 µM (inactive) | > 100 µM (inactive) | > 100 µM (inactive) | > 100 µM (inactive) | > 100 µM (inactive) | > 100 µM (inactive) | > 100 µM (inactive) | > 100 µM (inactive) | > 100 µM (inactive)
Cc1ccc([N+](=O)[O-])c2c(NCCC[N+](C)(C)[O-])ccnc12 | > 100 µM (inactive) | 29.4 µM (inactive) | 98.9 µM (inactive) | 57.8 µM (inactive) | > 100 µM (inactive) | 33.4 µM (inactive) | 31 µM (inactive) | 33.9 µM (inactive) | > 100 µM (inactive) | 34.4 µM (inactive) | 44 µM (inactive) | 48.8 µM (inactive) | > 100 µM (inactive) | 38.9 µM (inactive) | > 100 µM (inactive) | 14.9 µM (inactive) | 34.1 µM (inactive) | 20.6 µM (inactive) | 78.9 µM (inactive) | 53.6 µM (inactive)
COc1cc(C2c3cc4c(cc3OC(NNC(N)=O)C2C)OCO4)cc(OC)c1OC (stereo not given) | 0.404 µM (active) | 0.603 µM (active) | 0.205 µM (active) | 0.585 µM (active) | 0.0362 µM (active) | 0.394 µM (active) | 0.167 µM (active) | 0.0902 µM (active) | 2.35 µM (inactive) | 0.525 µM (active) | 0.828 µM (active) | 0.125 µM (active) | 4.72 µM (inactive) | 0.13 µM (active) | 0.518 µM (active) | 0.136 µM (active) | 0.142 µM (active) | 0.427 µM (active) | 1.07 µM (active) | 0.634 µM (active)
COc1ccc(OC)c2c(Nc3ccc(S(=O)(=O)O)c4cc(S(=O)(=O)O)cc(S(=O)(=O)O)c34)cc(C)nc12 | > 100 µM (inactive) | > 100 µM (inactive) | > 100 µM (inactive) | > 100 µM (inactive) | > 100 µM (inactive) | > 100 µM (inactive) | > 100 µM (inactive) | > 100 µM (inactive) | > 100 µM (inactive) | > 100 µM (inactive) | > 100 µM (inactive) | > 100 µM (inactive) | > 100 µM (inactive) | > 100 µM (inactive) | > 100 µM (inactive) | > 100 µM (inactive) | > 100 µM (inactive) | > 100 µM (inactive) | > 100 µM (inactive) | > 100 µM (inactive)
CCCCCCCCCCCC[C@@H](O)[C@H]1CC[C@H]([C@H](O)CC[C@H](O)[C@@H]2CC[C@@H](CCCCCCCC3=C[C@H](C)OC3=O)O2)O1 | 3.99 µM (inactive) | > 14.9 µM (inactive) | > 50 µM (inactive) | 7.55 µM (inactive) | 6.47 µM (inactive) | > 18.1 µM (inactive) | > 37.2 µM (inactive) | > 50 µM (inactive) | > 50 µM (inactive) | > 50 µM (inactive) | > 50 µM (inactive) | 3.94 µM (inactive) | > 50 µM (inactive) | 5.58 µM (inactive) | > 50 µM (inactive) | > 50 µM (inactive) | > 50 µM (inactive) | > 50 µM (inactive) | > 50 µM (inactive) | > 50 µM (inactive)
O=C(O)CC(Cc1ccccc1Cl)C(=O)O (stereo not given) | > 100 µM (inactive) | > 100 µM (inactive) | > 100 µM (inactive) | > 100 µM (inactive) | > 100 µM (inactive) | > 100 µM (inactive) | > 100 µM (inactive) | > 100 µM (inactive) | > 100 µM (inactive) | > 100 µM (inactive) | > 100 µM (inactive) | > 100 µM (inactive) | > 100 µM (inactive) | > 100 µM (inactive) | > 100 µM (inactive) | > 100 µM (inactive) | > 100 µM (inactive) | > 100 µM (inactive) | > 100 µM (inactive) | > 100 µM (inactive)
NC(Cc1ccnnc1)C(=O)O (stereo not given) | > 100 µM (inactive) | > 100 µM (inactive) | > 100 µM (inactive) | > 100 µM (inactive) | > 100 µM (inactive) | > 100 µM (inactive) | > 100 µM (inactive) | > 100 µM (inactive) | > 100 µM (inactive) | > 100 µM (inactive) | > 100 µM (inactive) | > 100 µM (inactive) | > 100 µM (inactive) | > 100 µM (inactive) | > 100 µM (inactive) | > 100 µM (inactive) | > 100 µM (inactive) | > 100 µM (inactive) | > 100 µM (inactive) | > 100 µM (inactive)
Cc1cc(C)c2c(c1)CC1(Cc3c(ccc(C)c3C)C1=O)C2=O (stereo not given) | > 100 µM (inactive) | > 100 µM (inactive) | > 100 µM (inactive) | > 100 µM (inactive) | > 100 µM (inactive) | > 100 µM (inactive) | > 100 µM (inactive) | > 100 µM (inactive) | > 100 µM (inactive) | > 100 µM (inactive) | > 100 µM (inactive) | > 100 µM (inactive) | > 100 µM (inactive) | > 100 µM (inactive) | > 100 µM (inactive) | > 100 µM (inactive) | > 100 µM (inactive) | > 100 µM (inactive) | > 100 µM (inactive) | > 100 µM (inactive)
O=[N+]([O-])c1cccnc1NCC1(CO)CC(Cc2ccccc2)C1 (stereo not given) | > 100 µM (inactive) | > 100 µM (inactive) | 80.4 µM (inactive) | > 100 µM (inactive) | > 100 µM (inactive) | > 100 µM (inactive) | 99.8 µM (inactive) | > 100 µM (inactive) | 77.6 µM (inactive) | > 100 µM (inactive) | > 100 µM (inactive) | > 100 µM (inactive) | > 100 µM (inactive) | > 100 µM (inactive) | > 100 µM (inactive) | > 100 µM (inactive) | > 100 µM (inactive) | > 100 µM (inactive) | 74 µM (inactive) | > 100 µM (inactive)
Nc1nc(Cl)c(C=O)c(NCC2(CO)CC(CCc3ccccc3)C2)n1 (stereo not given) | 6.15 µM (inactive) | 3.08 µM (inactive) | 12.6 µM (inactive) | 14.8 µM (inactive) | 6.59 µM (inactive) | 2.29 µM (inactive) | 12.4 µM (inactive) | 11.3 µM (inactive) | 3.94 µM (inactive) | 14.2 µM (inactive) | 14.1 µM (inactive) | 22.9 µM (inactive) | 16.2 µM (inactive) | 13.7 µM (inactive) | 15.4 µM (inactive) | 9.16 µM (inactive) | 4.1 µM (inactive) | 1.74 µM (inactive) | 1.48 µM (inactive) | 1.55 µM (inactive)
CCOC(=O)C(NC(=O)c1ccccc1)(Nc1ccc(Cl)cc1C(F)(F)F)C(F)(F)F (stereo not given) | 4.45 µM (inactive) | 9.64 µM (inactive) | 16.7 µM (inactive) | 12.9 µM (inactive) | 1.51 µM (inactive) | 4.59 µM (inactive) | 2.96 µM (inactive) | 3.57 µM (inactive) | 5.6 µM (inactive) | 3.44 µM (inactive) | 3.37 µM (inactive) | 39.3 µM (inactive) | 2.76 µM (inactive) | 3.78 µM (inactive) | > 37.4 µM (inactive) | 4.83 µM (inactive) | 2.88 µM (inactive) | 4.03 µM (inactive) | 5.21 µM (inactive) | 7.5 µM (inactive)
CC1=NN(c2cccc(Cl)c2)C2(C1)C(Cl)C(=O)N2c1nc2ccccc2s1 (stereo not given) | 22.8 µM (inactive) | 42.1 µM (inactive) | 14.2 µM (inactive) | 37.1 µM (inactive) | 29.2 µM (inactive) | 19.7 µM (inactive) | 17.3 µM (inactive) | 20.5 µM (inactive) | 45.5 µM (inactive) | 27.9 µM (inactive) | 30.5 µM (inactive) | 45.2 µM (inactive) | 25.4 µM (inactive) | 19.2 µM (inactive) | 33.2 µM (inactive) | 32.1 µM (inactive) | 33.2 µM (inactive) | 21.8 µM (inactive) | 19.3 µM (inactive) | 33.1 µM (inactive)
CS(=O)(=O)OCC1CN(S(C)(=O)=O)c2cc(O)ccc21 (stereo not given) | 2.92 µM (inactive) | 2.68 µM (inactive) | 3.33 µM (inactive) | 2.8 µM (inactive) | 1.91 µM (inactive) | 1.72 µM (inactive) | 1.87 µM (inactive) | 2.82 µM (inactive) | 4.37 µM (inactive) | 1.19 µM (inactive) | 2.02 µM (inactive) | 3.52 µM (inactive) | 3.09 µM (inactive) | 2.77 µM (inactive) | 0.524 µM (active) | 1.53 µM (inactive) | 2.84 µM (inactive) | 3.85 µM (inactive) | 3.26 µM (inactive) | 3.42 µM (inactive)
